Results from publication PMC5218480 (PLoS ONE, 2017).

Tested on: MV-4-11 cells
Test: Gene expression microarray analysis (Affymetrix PrimeView) and GSEA
Assay type: cell-based, human
Design: RFU PODN (11730768_x_at) / Fold change /veh PODN (11730768_x_at) / RFU LINC00158 (11744669_a_at) / Fold change /veh LINC00158 (11744669_a_at) / RFU DUSP10 (11751237_a_at) / Fold change /veh DUSP10 (11751237_a_at) / RFU ID3 (11757404_x_at) / Fold change /veh ID3 (11757404_x_at) / RFU PLEKHG5 (11737974_s_at) / Fold change /veh PLEKHG5 (11737974_s_at) / RFU LRRC4B (11730491_at) / Fold change /veh LRRC4B (11730491_at) / RFU GIMAP4 (11747438_a_at) / Fold change /veh GIMAP4 (11747438_a_at) / RFU KRT8 (11758183_x_at) / Fold change /veh KRT8 (11758183_x_at) / RFU CNN1 (11734310_a_at) / Fold change /veh CNN1 (11734310_a_at) / RFU VPS37D (11726825_at) / Fold change /veh VPS37D (11726825_at) / RFU C10orf10 (11716522_x_at) / Fold change /veh C10orf10 (11716522_x_at) / RFU KIR2DL2 /// KIR2DL4 /// KIR2DL5A /// KIR2DL5B /// KIR2DS1 /// KIR2DS2 /// KIR2DS3 /// KIR2DS4 /// KIR3DL3 /// KIR3DL3 /// KIR3DS1 (11738374_at) / Fold change /veh KIR2DL2 /// KIR2DL4 /// KIR2DL5A /// KIR2DL5B /// KIR2DS1 /// KIR2DS2 /// KIR2DS3 /// KIR2DS4 /// KIR3DL3 /// KIR3DL3 /// KIR3DS1 (11738374_at) / RFU C1QL1 (11718748_at) / Fold change /veh C1QL1 (11718748_at) / RFU TMPRSS4 (11747572_a_at) / Fold change /veh TMPRSS4 (11747572_a_at) / RFU HAMP (11756126_x_at) / Fold change /veh HAMP (11756126_x_at) / RFU RNFT2 (11725882_a_at) / Fold change /veh RNFT2 (11725882_a_at) / RFU NR4A2 (11747474_a_at) / Fold change /veh NR4A2 (11747474_a_at) / RFU ABCC12 (11746883_a_at) / Fold change /veh ABCC12 (11746883_a_at) / RFU TMEM136 (11760407_x_at) / Fold change /veh TMEM136 (11760407_x_at) / RFU CLDN22 /// WWC2 (11732394_at) / Fold change /veh CLDN22 /// WWC2 (11732394_at) / RFU HLA-DPB1 (11760878_x_at) / Fold change /veh HLA-DPB1 (11760878_x_at) / RFU SPINT1 (11716480_a_at) / Fold change /veh SPINT1 (11716480_a_at) / RFU GAP43 (11754022_s_at) / Fold change /veh GAP43 (11754022_s_at) / RFU A4GNT (11735810_at) / Fold change /veh A4GNT (11735810_at) / RFU PRB3 (11715151_x_at) / Fold change /veh PRB3 (11715151_x_at) / RFU TUBB4B (11761932_at) / Fold change /veh TUBB4B (11761932_at) / RFU CAPN14 (11732068_a_at) / Fold change /veh CAPN14 (11732068_a_at) / RFU TMCC2 (11721928_a_at) / Fold change /veh TMCC2 (11721928_a_at) / RFU IRGQ (11745062_a_at) / Fold change /veh IRGQ (11745062_a_at) / RFU FAM174B (11720279_a_at) / Fold change /veh FAM174B (11720279_a_at) / RFU TMPRSS4 (11748680_a_at) / Fold change /veh TMPRSS4 (11748680_a_at) / RFU FAM212B (11763350_a_at) / Fold change /veh FAM212B (11763350_a_at) / RFU PLEKHG5 (11743358_a_at) / Fold change /veh PLEKHG5 (11743358_a_at) / RFU ZSCAN30 (11745921_a_at) / Fold change /veh ZSCAN30 (11745921_a_at) / RFU CMKLR1 (11741424_a_at) / Fold change /veh CMKLR1 (11741424_a_at) / RFU LOC101060620 /// MAPK8IP1 (11723275_at) / Fold change /veh LOC101060620 /// MAPK8IP1 (11723275_at) / RFU SPTSSB (11747773_x_at) / Fold change /veh SPTSSB (11747773_x_at) / RFU PRSS12 (11739890_at) / Fold change /veh PRSS12 (11739890_at) / RFU BIN1 (11741810_x_at) / Fold change /veh BIN1 (11741810_x_at) / RFU WNT11 (11732464_a_at) / Fold change /veh WNT11 (11732464_a_at) / RFU C10orf10 (11716521_a_at) / Fold change /veh C10orf10 (11716521_a_at) / RFU C5orf56 (11738089_at) / Fold change /veh C5orf56 (11738089_at) / RFU CYB561 (11721691_x_at) / Fold change /veh CYB561 (11721691_x_at) / RFU ANKRD19P (11752326_a_at) / Fold change /veh ANKRD19P (11752326_a_at) / RFU OR2T12 /// OR2T33 /// OR2T8 (11738714_s_at) / Fold change /veh OR2T12 /// OR2T33 /// OR2T8 (11738714_s_at) / RFU VCAN (11748164_a_at) / Fold change /veh VCAN (11748164_a_at) / RFU JSRP1 (11732532_at) / Fold change /veh JSRP1 (11732532_at) / RFU KRTAP10-11 (11738290_x_at) / Fold change /veh KRTAP10-11 (11738290_x_at) / RFU MYO3A (11730013_a_at) / Fold change /veh MYO3A (11730013_a_at) / RFU EBF3 (11725865_a_at) / Fold change /veh EBF3 (11725865_a_at) / RFU CAMK2N1 (11719241_x_at) / Fold change /veh CAMK2N1 (11719241_x_at) / RFU C5orf56 (11738088_a_at) / Fold change /veh C5orf56 (11738088_a_at) / RFU OLFML3 (11715873_a_at) / Fold change /veh OLFML3 (11715873_a_at) / RFU LOC100653217 /// NTM (11731650_a_at) / Fold change /veh LOC100653217 /// NTM (11731650_a_at) / RFU MAPK11 (11762145_a_at) / Fold change /veh MAPK11 (11762145_a_at) / RFU FIZ1 (11724087_x_at) / Fold change /veh FIZ1 (11724087_x_at) / RFU OASL (11726364_x_at) / Fold change /veh OASL (11726364_x_at) / RFU SOX15 (11748057_x_at) / Fold change /veh SOX15 (11748057_x_at) / RFU CD79A (11719716_a_at) / Fold change /veh CD79A (11719716_a_at) / RFU HIST1H1D (11736915_at) / Fold change /veh HIST1H1D (11736915_at) / RFU CASKIN2 (11723855_a_at) / Fold change /veh CASKIN2 (11723855_a_at) / RFU LOC730098 (11760151_x_at) / Fold change /veh LOC730098 (11760151_x_at) / RFU OR4N2 (11742367_at) / Fold change /veh OR4N2 (11742367_at) / RFU PRRT2 (11749266_a_at) / Fold change /veh PRRT2 (11749266_a_at) / RFU SNX32 (11753110_a_at) / Fold change /veh SNX32 (11753110_a_at) / RFU CDHR5 (11726645_a_at) / Fold change /veh CDHR5 (11726645_a_at) / RFU RCAN1 (11760418_a_at) / Fold change /veh RCAN1 (11760418_a_at) / RFU FAM167A (11723789_a_at) / Fold change /veh FAM167A (11723789_a_at) / RFU FAM26E (11764081_at) / Fold change /veh FAM26E (11764081_at) / RFU ISYNA1 (11749810_s_at) / Fold change /veh ISYNA1 (11749810_s_at) / RFU ACY1 (11761880_at) / Fold change /veh ACY1 (11761880_at) / RFU 11764098_at / Fold change /veh 11764098_at / RFU SAMD14 (11745864_x_at) / Fold change /veh SAMD14 (11745864_x_at) / RFU NPB (11741838_a_at) / Fold change /veh NPB (11741838_a_at) / RFU TMPRSS6 (11731388_a_at) / Fold change /veh TMPRSS6 (11731388_a_at) / RFU KRTAP10-2 (11738614_at) / Fold change /veh KRTAP10-2 (11738614_at) / RFU ARHGAP8 /// PRR5-ARHGAP8 (11727945_x_at) / Fold change /veh ARHGAP8 /// PRR5-ARHGAP8 (11727945_x_at) / RFU KRTAP5-7 /// NADSYN1 (11734609_at) / Fold change /veh KRTAP5-7 /// NADSYN1 (11734609_at) / RFU RASL12 (11751679_a_at) / Fold change /veh RASL12 (11751679_a_at) / RFU CDKN2B (11736163_a_at) / Fold change /veh CDKN2B (11736163_a_at) / RFU PRF1 (11729649_at) / Fold change /veh PRF1 (11729649_at) / RFU, ZNF638 /// ZNF638-IT1 / Fold change vs veh, ZNF638 /// ZNF638-IT1 / RFU, PANK3 / Fold change vs veh, PANK3 / RFU, SH3YL1 / Fold change vs veh, SH3YL1 / RFU, ZEB2 / Fold change vs veh, ZEB2 / RFU, NRIP1 / Fold change vs veh, NRIP1 / RFU, PTTG1IP / Fold change vs veh, PTTG1IP / RFU, CAPN2 / Fold change vs veh, CAPN2 / RFU, MED14 / Fold change vs veh, MED14 / RFU, SNORA58 / Fold change vs veh, SNORA58 / RFU, C1orf63 / Fold change vs veh, C1orf63 / RFU, LRRFIP1 / Fold change vs veh, LRRFIP1 / RFU, NDUFAF7 / Fold change vs veh, NDUFAF7 / RFU, SLC12A2 / Fold change vs veh, SLC12A2 / RFU, IBTK / Fold change vs veh, IBTK / RFU, ESF1 / Fold change vs veh, ESF1 / Fold change vs veh, TMEM50B / RFU, TAOK1 / Fold change vs veh, TAOK1 / RFU, ACBD3 / Fold change vs veh, ACBD3 / RFU, TMA16 / Fold change vs veh, TMA16 / RFU, RWDD3 / Fold change vs veh, RWDD3 / RFU, BCAT1 / Fold change vs veh, BCAT1 / RFU, EDEM3 / Fold change vs veh, EDEM3 / RFU, TMEM33 / Fold change vs veh, TMEM33 / RFU, WDR75 / Fold change vs veh, WDR75 / RFU, AHCTF1 / Fold change vs veh, AHCTF1 / RFU, TFRC / Fold change vs veh, TFRC / RFU, ZDHHC17 / Fold change vs veh, ZDHHC17 / RFU, NOM1 / Fold change vs veh, NOM1 / RFU, ARL8B / Fold change vs veh, ARL8B / RFU, ZBTB11 / Fold change vs veh, ZBTB11 / RFU, TAMM41 / Fold change vs veh, TAMM41 / RFU, KIAA1704 /// LOC100996395 / Fold change vs veh, KIAA1704 /// LOC100996395 / RFU, ING1 / Fold change vs veh, ING1 / RFU, TRMT61B / Fold change vs veh, TRMT61B / RFU, FUBP3 / Fold change vs veh, FUBP3 / RFU, TP53 / Fold change vs veh, TP53 / RFU, TNKS2 / Fold change vs veh, TNKS2 / RFU, ZFP14 / Fold change vs veh, ZFP14 / RFU, ACTR2 / Fold change vs veh, ACTR2 / RFU, PPP3R1 / Fold change vs veh, PPP3R1 / RFU, PIK3R1 / Fold change vs veh, PIK3R1 / RFU, HNRNPA1 / Fold change vs veh, HNRNPA1 / RFU, RNF170 / Fold change vs veh, RNF170 / RFU, ZNF28 / Fold change vs veh, ZNF28 / RFU, RNGTT / Fold change vs veh, RNGTT / RFU, OGT / Fold change vs veh, OGT / RFU, BRD1 / Fold change vs veh, BRD1 / RFU, MARS / Fold change vs veh, MARS / RFU, ZNF655 / Fold change vs veh, ZNF655 / RFU, FAHD1 / Fold change vs veh, FAHD1 / RFU, BDP1 / Fold change vs veh, BDP1 / RFU, LRRCC1 / Fold change vs veh, LRRCC1 / RFU, ARID1A / Fold change vs veh, ARID1A / RFU, ZNF146 / Fold change vs veh, ZNF146 / RFU, ZNF330 / Fold change vs veh, ZNF330 / RFU, GPN3 / Fold change vs veh, GPN3 / RFU, C9orf123 / Fold change vs veh, C9orf123 / RFU, N4BP2L2 / Fold change vs veh, N4BP2L2 / RFU, ARFIP1 / Fold change vs veh, ARFIP1 / RFU, FAM179B / Fold change vs veh, FAM179B / RFU, BCL10 / Fold change vs veh, BCL10 / RFU, UHRF1BP1L / Fold change vs veh, UHRF1BP1L / RFU, BET1 / Fold change vs veh, BET1 / RFU, CNOT2 / Fold change vs veh, CNOT2 / RFU, ZNF268 / Fold change vs veh, ZNF268 / Fold change vs veh, ZNF507 / RFU, DGCR2 / Fold change vs veh, DGCR2 / RFU, WDSUB1 / Fold change vs veh, WDSUB1 / Fold change vs veh, HSP90B1 /// MIR3652 / RFU, ADSS / Fold change vs veh, ADSS / RFU, GK / Fold change vs veh, GK / RFU, ZNF148 / Fold change vs veh, ZNF148 / RFU, TAF9 / Fold change vs veh, TAF9 / RFU, SLC1A5 / Fold change vs veh, SLC1A5 / RFU, SLMO2 / Fold change vs veh, SLMO2 / RFU, ABCC4 / Fold change vs veh, ABCC4 / RFU, LOC101060439 /// RAP1B / Fold change vs veh, LOC101060439 /// RAP1B / RFU, RFX7 / Fold change vs veh, RFX7 / RFU, GTPBP10 / Fold change vs veh, GTPBP10 / RFU, CNEP1R1 / Fold change vs veh, CNEP1R1 / RFU, BIVM-ERCC5 /// ERCC5 / Fold change vs veh, BIVM-ERCC5 /// ERCC5 / RFU, ILF3 / Fold change vs veh, ILF3 / RFU 11762660_at / Fold change /veh 11762660_at / RFU VCAN (11757783_s_at) / Fold change /veh VCAN (11757783_s_at) / RFU DDX43 (11728927_at) / Fold change /veh DDX43 (11728927_at) / RFU KRT8 (11758188_x_at) / Fold change /veh KRT8 (11758188_x_at) / RFU NKD1 (11759106_at) / Fold change /veh NKD1 (11759106_at) / RFU SRD5A1 (11742802_a_at) / Fold change /veh SRD5A1 (11742802_a_at) / RFU TPSAB1 /// TPSB2 (11721975_s_at) / Fold change /veh TPSAB1 /// TPSB2 (11721975_s_at) / RFU GSTM3 (11746129_a_at) / Fold change /veh GSTM3 (11746129_a_at) / RFU IL23R (11737362_x_at) / Fold change /veh IL23R (11737362_x_at) / RFU TMEM51 (11727254_a_at) / Fold change /veh TMEM51 (11727254_a_at) / RFU PIWIL2 (11732686_x_at) / Fold change /veh PIWIL2 (11732686_x_at) / RFU ORM1 (11744905_x_at) / Fold change /veh ORM1 (11744905_x_at) / RFU CCDC152 (11743942_at) / Fold change /veh CCDC152 (11743942_at) / RFU ECM1 (11717891_a_at) / Fold change /veh ECM1 (11717891_a_at) / RFU IL23R (11748794_a_at) / Fold change /veh IL23R (11748794_a_at) / RFU TNFAIP8L3 (11732012_x_at) / Fold change /veh TNFAIP8L3 (11732012_x_at) / RFU MBOAT4 (11741988_at) / Fold change /veh MBOAT4 (11741988_at) / RFU 11764193_at / Fold change /veh 11764193_at / RFU TMEM53 (11763286_at) / Fold change /veh TMEM53 (11763286_at) / RFU MAGEB2 (11727129_at) / Fold change /veh MAGEB2 (11727129_at) / RFU TMEM200A (11744735_a_at) / Fold change /veh TMEM200A (11744735_a_at) / RFU CCDC152 (11751479_a_at) / Fold change /veh CCDC152 (11751479_a_at) / RFU FAM211A (11726209_a_at) / Fold change /veh FAM211A (11726209_a_at) / RFU RGS16 (11746705_a_at) / Fold change /veh RGS16 (11746705_a_at) / RFU VCAN (11755009_s_at) / Fold change /veh VCAN (11755009_s_at) / RFU RHOB (11743442_s_at) / Fold change /veh RHOB (11743442_s_at) / RFU RGS16 (11720943_a_at) / Fold change /veh RGS16 (11720943_a_at) / RFU RGS16 (11720944_at) / Fold change /veh RGS16 (11720944_at) / RFU, VPS4B / Fold change vs veh, VPS4B / RFU, CREB1 / Fold change vs veh, CREB1 / RFU, DNAJC13 / Fold change vs veh, DNAJC13 / RFU, GNAQ / Fold change vs veh, GNAQ / RFU, CDK5R1 / Fold change vs veh, CDK5R1 / RFU, ZRANB3 / Fold change vs veh, ZRANB3 / RFU, CUL4A / Fold change vs veh, CUL4A / RFU, CCNY / Fold change vs veh, CCNY / RFU, UFL1 / Fold change vs veh, UFL1 / RFU, COG3 / Fold change vs veh, COG3 / RFU, DIAPH2 / Fold change vs veh, DIAPH2 / RFU, SKA2 / Fold change vs veh, SKA2 / RFU, AFF3 / Fold change vs veh, AFF3 / RFU, LMF1 / Fold change vs veh, LMF1 / RFU, IPO11 / Fold change vs veh, IPO11 / RFU, DFFB / Fold change vs veh, DFFB / RFU, FOXP1 / Fold change vs veh, FOXP1 / RFU, CARD8 / Fold change vs veh, CARD8 / RFU, STRN3 / Fold change vs veh, STRN3 / RFU, ADK / Fold change vs veh, ADK / RFU, RASSF2 / Fold change vs veh, RASSF2 / RFU, WIPF1 / Fold change vs veh, WIPF1 / RFU, LARP1B / Fold change vs veh, LARP1B / RFU, RASA1 / Fold change vs veh, RASA1 / RFU, RB1 / Fold change vs veh, RB1 / RFU, PPFIA1 / Fold change vs veh, PPFIA1 / RFU, MAT2A / Fold change vs veh, MAT2A / RFU, CCT5 / Fold change vs veh, CCT5 / RFU, WDR92 / Fold change vs veh, WDR92 / RFU, CUX1 / Fold change vs veh, CUX1 / RFU, TTC7A / Fold change vs veh, TTC7A / RFU, TMEM135 / Fold change vs veh, TMEM135 / RFU, DEPTOR / Fold change vs veh, DEPTOR / RFU, CPM / Fold change vs veh, CPM / RFU, DNAJB6 / Fold change vs veh, DNAJB6 / RFU, CACNA2D3 / Fold change vs veh, CACNA2D3 / RFU, DTX4 / Fold change vs veh, DTX4 / RFU, TFCP2 / Fold change vs veh, TFCP2 / RFU, GMCL1 /// GMCL1P1 / Fold change vs veh, GMCL1 /// GMCL1P1 / RFU, AEBP2 / Fold change vs veh, AEBP2 / RFU, SNHG1 /// SNORD22 /// SNORD25 /// SNORD26 /// SNORD27 /// SNORD28 /// SNORD29 /// SNORD31 / Fold change vs veh, SNHG1 /// SNORD22 /// SNORD25 /// SNORD26 /// SNORD27 /// SNORD28 /// SNORD29 /// SNORD31 / Fold change (Aza/veh), C12orf56 (ProbeSet 11735607_a_at) / Fold change (ACY-1035/veh), C12orf56 (ProbeSet 11735607_a_at) / Fold change (Aza/veh), FGFR1OP (ProbeSet 11751329_s_at) / Fold change (ACY-1035/veh), FGFR1OP (ProbeSet 11751329_s_at) / Fold change (Aza/veh), VPS36 (ProbeSet 11739960_a_at) / Fold change (ACY-1035/veh), VPS36 (ProbeSet 11739960_a_at) / RFU SYPL1 (11715823_x_at) / Fold change /veh SYPL1 (11715823_x_at) / RFU IGFBP7 (11715501_s_at) / Fold change /veh IGFBP7 (11715501_s_at) / RFU REEP3 (11722064_at) / Fold change /veh REEP3 (11722064_at) / RFU IGLL1 (11728026_x_at) / Fold change /veh IGLL1 (11728026_x_at): dose or concentration left out as unconfirmed
Settings: MV-4-11 cells, 48 hours

**Q.** Which “RFU CCDC152 (11743942_at)” value does the source give for Nc1ccc(-c2cccs2)cc1NC(=O)c1ccc2c(c1)cc(C1CC1)n2CCN1CCOCC1 [ACY-1035] here?
**A.** 5.45 RFU
